Experimental data from US20030145348A1, “Dehydroquinate dehydrase/shikimate dehydrogenase as a herbicide target” (priority 2000, published 2003).

Tests used:
shikimate dehydrogenase = conditions: cited from earlier work
[1] = biological target: dehydroquinate dehydratase/shikimate dehydrogenase (Nicotiana tabacum, UniProt Q6PUF9); experiment: shikimate dehydrogenase activity assay of Example 5A (NADPH formation, OD 334 nm); format: biochemical; conditions: 0.1 mM shikimate, 0.1 mM NADP, pH 9.9
Description: A. The shikimate dehydrogenase of the bifunctional dehydroquinate dehydratase/shikimate dehydrogenase enzyme catalyzes the following reaction:
shikimate+NADP ? dehydroshikimate+NADPH
The formation of NADPH can be measured over 10 minutes at an OD of 334 nm. The reaction is started by adding 1 microliter of the extracted crude protein. The reaction buffer contains:
100 mM glycine-NaOH, pH: 9.9;
0.1 mM shikimate (Sigma);
The full-length dehydroquinate dehydratase/shikimate dehydrogenase gene was cloned into the pQE vector (FIG. 7) and transformed into E. coli. A single colony of this E. coli strain was incubated overnight at 37° C. in the growth medium “2xYT” (per liter: Bacto tryptone 16 g, yeast extract 10 g, NaCl 5 g, 50 mg/l ampicillin and 50 mg/l kanamycin). Next day, 50 ml of 2*YT were inoculated with 0.5 ml of the overnight culture and grown at 25° C. to an OD600 of 0.6. Gene expression was induced by addition of IPTG (final concentration: 0.05 mM) and incubation was continued for 3 hours at 25° C. The cells were harvested at 4° C. by centrifugation for 10 minutes at 8000 rpm. The pellet was taken up in 3 ml of extraction buffer (50 mM NaH2PO4, 300 mM NaCl, 10 mM imidazole, 15% glycerol, 5 mM mercaptoethanol). The pellet was frozen in liquid nitrogen and again defrosted on ice. The cells were disrupted by sonication (4×45 seconds, 1 minute on ice). The cells were spun down for 20 minutes at 4° C. and 1500 rpm, and the supernatent was used directly for the enzyme measurements.
Six substances whose IC50 value is in the μM range were identified in a comprehensive screening based on the activity assay described in Example 5A (see Table 1).

[2] = system: duckweed Lemna paucicostatag; experiment: Lemna test, chlorophyll fluorescence; format: in vivo, Lemna minor; design: key: A herbicidal effect can be detected by comparison with an untreated control; it is identified in Table 1 by the symbol H; conditions: chlorophyll fluorescence vs untreated control; 5 mmol/l in DMSO diluted 1:5 in water, 25 μl in 0.5 ml nutrient solution
Description: The effect of the herbicidal compounds according to the invention on the growth of the duckweed Lemna paucicostatag is evident from the following test results:
Lemna minor was grown under nonsterile conditions in Petri dishes in 17 mmol/l MES buffer pH 5.5+1.5 mmol/l CaCl—2+1 g/l “Hakaphos spezial”.
To carry out the test, the Lemna cultures are washed and singled out into 0.5 ml of fresh nutrient solution in 48-well microtiter plates. The active ingredients are dissolved in DMSO at a concentration of 5 mmol/l and diluted 1:5 in water. 25 μl of this solution are used in the test.
The parameter measured is the fluorescence of the chlorophyll during the treatment. A herbicidal effect can be detected by comparison with an untreated control; it is identified in Table 1 by the symbol H.

[3] = biological target: T1, dehydroquinate dehydratase (Escherichia coli, UniProt P05194); conditions: in Escherichia coli; cited from earlier work
T1 sequence (P05194 1-252): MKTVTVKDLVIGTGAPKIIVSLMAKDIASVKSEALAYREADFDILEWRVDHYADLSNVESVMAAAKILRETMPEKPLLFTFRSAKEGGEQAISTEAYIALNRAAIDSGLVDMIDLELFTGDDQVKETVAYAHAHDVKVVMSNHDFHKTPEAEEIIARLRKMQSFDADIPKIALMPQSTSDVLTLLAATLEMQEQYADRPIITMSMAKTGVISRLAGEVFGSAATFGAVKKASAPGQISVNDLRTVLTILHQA

Chain of dehydroquinate dehydratase/shikimate dehydrogenase (Q6PUF9 entry or part of it): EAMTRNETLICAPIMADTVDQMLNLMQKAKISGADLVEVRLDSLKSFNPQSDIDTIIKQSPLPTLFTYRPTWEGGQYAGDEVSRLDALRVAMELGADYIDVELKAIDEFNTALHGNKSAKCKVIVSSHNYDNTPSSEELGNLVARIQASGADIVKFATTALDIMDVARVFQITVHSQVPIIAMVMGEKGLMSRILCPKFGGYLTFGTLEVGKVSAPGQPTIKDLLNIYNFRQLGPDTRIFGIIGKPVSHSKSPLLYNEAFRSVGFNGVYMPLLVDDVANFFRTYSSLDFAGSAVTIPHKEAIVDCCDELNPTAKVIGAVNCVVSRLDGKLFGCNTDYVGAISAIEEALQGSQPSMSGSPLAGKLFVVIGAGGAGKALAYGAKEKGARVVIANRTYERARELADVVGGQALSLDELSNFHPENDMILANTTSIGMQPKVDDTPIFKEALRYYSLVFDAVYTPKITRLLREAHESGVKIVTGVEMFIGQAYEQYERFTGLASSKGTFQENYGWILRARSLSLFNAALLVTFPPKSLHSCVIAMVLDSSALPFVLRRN

For `O=S(=O)([O-])[O-].[Cd+2]` [CdSO4], the “inhibitory effect on shikimate dehydrogenase” value (shikimate dehydrogenase) is listed as “inhibitory effect”.
In the case of `O=S(=O)([O-])[O-].[Cu+2]` [CuSO4], the “inhibitory effect on shikimate dehydrogenase” value (shikimate dehydrogenase) is listed as “inhibitory effect”.
For `[Cu+2]` [Cu^2+], the “inhibitory effect on shikimate dehydrogenase” value (shikimate dehydrogenase) is given as “inhibitory effect”.
For `[Cl][Hg][Cl]` [HgCl2], the “inhibitory effect on shikimate dehydrogenase” value (shikimate dehydrogenase) is given as “inhibitory effect”.
For `[Hg+2]` [Hg^2+], the “inhibitory effect on shikimate dehydrogenase” value (shikimate dehydrogenase) is given as “inhibitory effect”.
In the case of `CCN1C(=O)C=CC1=O` [N-ethylmaleimides], the “inhibitory effect on shikimate dehydrogenase” value (shikimate dehydrogenase) is given as “inhibitory effect”.
For `O=c1[nH]c2ccccc2c(=O)n1CCN1CC2C[C@@H](c3cccc(Cl)c3)C2C1` (stereo partly shown) [No. 1], the IC50 [1] was 20 µM and the “Effect (herbicidal effect on growth of Lemna)” value [2] was “H”.
For `O=C(NNC(=O)c1sc2ccccc2c1Cl)Nc1cccc(Cl)c1` [No. 2], the IC50 [1] was 23 µM and the “Effect (herbicidal effect on growth of Lemna)” value [2] was “H”.
In the case of `CC(=N\O)/C(=N/Nc1ccc(S(C)(=O)=O)cc1)c1ccc(Cl)cc1` [No. 3], the IC50 [1] is reported as 7 µM and the “Effect (herbicidal effect on growth of Lemna)” value [2] is reported as “H”.
With `O=C(Nc1c(Cl)cc(Cl)cc1Cl)c1cccc(O)c1O` [No. 5] the IC50 [1] was 3 µM and the “Effect (herbicidal effect on growth of Lemna)” value [2] was “H”.
In the case of `COc1cc(C(=S)N[C@H]2CC[C@@H](C(C)(C)C)CC2)ccc1OC(C)=O` [No. 6], the IC50 [1] is reported as 11 µM and the “Effect (herbicidal effect on growth of Lemna)” value [2] is reported as “H”.
For `[Cl-].[Cl-].[Zn+2]` [ZnCl2], the “inhibitory effect on shikimate dehydrogenase” value (shikimate dehydrogenase) is listed as “inhibitory effect”.
For `[Zn+2]` [Zn^2+], the “inhibitory effect on shikimate dehydrogenase” value (shikimate dehydrogenase) is listed as “inhibitory effect”.
In the case of D-(+)-tartrates, the “inhibitory effect on dehydroquinate dehydratase” value [3] is given as “inhibitory effect”.
For acetates, the “inhibitory effect on dehydroquinate dehydratase” value [3] is listed as “inhibitory effect”.
For arsenites, the “inhibitory effect on shikimate dehydrogenase” value (shikimate dehydrogenase) is listed as “inhibitory effect”.
In the case of berates, the “inhibitory effect on shikimate dehydrogenase” value (shikimate dehydrogenase) is given as “inhibitory effect”.
In the case of diethylcarbonates, the “inhibitory effect on dehydroquinate dehydratase” value [3] is listed as “inhibitory effect”.
In the case of p-chloromercuribenzoates, the “inhibitory effect on shikimate dehydrogenase” value (shikimate dehydrogenase) is given as “inhibitory effect”.
In the case of succinates, the “inhibitory effect on dehydroquinate dehydratase” value [3] is given as “inhibitory effect”.
